One assay concerns the target T1, LXRα (Homo sapiens, UniProt Q13133).
T1 construct: were made by cloning the appropriate full-length cDNAs into the pBacPakhis1 vector; poly-His (pBacPakhis1) (N); made in house; host or cells: Sf9 insect cells (baculovirus), crude lysate
Kind of assay: Scintillation proximity assay (SPA), competition with 3H-24,25-epoxycholesterol. The class given is binding. The settings on record: average Ki with respect to LXR α. As for the experimental part:
(§1) The SPA assay measures the radioactive signal generated by the binding of ^3H-24,25-epoxycholesterol to LXRα or LXRβ. The basis of the assay is the use of SPA beads containing a scintillant, such that when binding to the receptor brings the labeled ligand into proximity with the bead, the energy from the label stimulates the scintillant to emit light. The light is measured using a standard microplate scintillation reader. The ability of a ligand to bind to a receptor can be measured by assessing the degree to which the compound can compete off a radiolabelled ligand with known affinity for the receptor.
(§2) 1. Label: ^3H-24,25-epoxy-cholesterol (Amersham)
2. LXRα lysate: Baculovirus expressed LXRα/RXR heterodimer with RXR having a 6-HIS tag produced as a crude lysate
(§3) 4. SPA beads: Ysi copper His-tag SPA beads (Amersham)
(§4) Baculovirus expression plasmids for human RXR α (accession No NM_002957), LXR a (accession No U22662), LXR β (accession No U07132) were made by cloning the appropriate full-length cDNAs into the pBacPakhis1 vector (Clontech, CA) following standard procedures. Insertion of the cDNAs into the pBAcPakhis1 vector polylinker created an in frame fusion to the cDNA to an N-terminal poly-His tag present in pBacPakhis1. Correct cloning was confirmed by restriction mapping, and/or sequencing.
(§5) Cell lysates were prepared by infecting healthy, Sf9 insect cells at a density of approximately 1.25×10^6/ml at 27° C., in a total volume of 500 mL per 1 L sized spinner flasks, cultured under standard conditions. To prepare LXRα lysate, insect cells were co-transfected with the LXR α expression cassette at an M.O.I of 0.5 to 0.8 and with the RXR expression cassette at a M.O.I. of approximately 1.6. To prepare LXRβ lysate, insect cells were co-transfected with the LXR β expression cassette at an M.O.I of approximately 1.6 and with the RXR expression cassette at a M.O.I. of approximately 1.6. In both cases cells were incubated for 48 hours at 27° C. with constant shaking prior to harvesting.
(§6) After incubation, cells were harvested by centrifugation and pelleted. Cell pellets were resuspended in two volumes of ice-cold freshly prepared extraction buffer (20 mM Tris pH 8.0, 10 mM Imidazole, 400 mM NaCl, containing one EDTA free protease inhibitor tablet (Roche Catalog No: 1836170) per 10 ml of extraction buffer).
(§7) Cells were homogenized slowly on ice using a Douncer to achieve 80-90% cell lysis. The homogenate was centrifuged in a pre-chilled rotor (Ti50 or Ti70, or equivalent) at 45,000 rpm for 30 minutes at 4° C. Aliquots of the supernatant were frozen on dry ice and stored frozen at −80° C. until quantification and quality control. Aliquots of the lysates were tested in the SPA assay to ensure lot to lot consistency, and via SDS-PAGE analysis after purification using Ni-NTA Resin (Qiagen) and adjusted for protein concentration and expression level prior to use in screening assays.
(§8) [^3H] 24,25 Epoxycholesterol (EC) solution: For a single 384-well plate (or 400 wells), 21 μL of [^3H] EC (specific activity 76.5 Ci/mmol, concentration 3.2 mCi/mL) was added to 4.4 mL of 2×SPA buffer to provide for a final concentration of 200 nM. For each additional 384-well plate, an additional 19.1 μL of [^3H] EC was added to 4.0 mL of additional 2×SPA buffer. The final concentration of [^3H] EC in the well was 50 nM.
LXRα lysate (prepared as above) was diluted with protein lysate dilution buffer. 1400 μL of diluted LXRα lysate was prepared per 384-well plate, (or 200 wells) and 1120 μL of diluted LXRα lysate was prepared for each additional 384-well plate.
(§9) SPA bead solution: For a 384-well plate (or 400 wells), 3.75 mL of 2×SPA buffer w/o EDTA, 2.25 mL of H2O, and 1.5 mL of Ysi His-tag SPA beads (vortex well before taking) were mixed together. For each additional 384-well plate, an additional 3.5 mL of 2×SPA buffer w/o EDTA, 2.1 mL of H2O, and 1.4 mL of Ysi His-tag SPA beads were mixed together. […]
For orientation: Scintillation proximity formats need no separation of bound from free tracer.

For a further assay, the target named is T2, LXRβ (Homo sapiens, UniProt P55055).
T2 construct: were made by cloning the appropriate full-length cDNAs into the pBacPakhis1 vector; poly-His (pBacPakhis1) (N); made in house; host or cells: Sf9 insect cells (baculovirus), crude lysate
T2 sequence (P19793 whole entry): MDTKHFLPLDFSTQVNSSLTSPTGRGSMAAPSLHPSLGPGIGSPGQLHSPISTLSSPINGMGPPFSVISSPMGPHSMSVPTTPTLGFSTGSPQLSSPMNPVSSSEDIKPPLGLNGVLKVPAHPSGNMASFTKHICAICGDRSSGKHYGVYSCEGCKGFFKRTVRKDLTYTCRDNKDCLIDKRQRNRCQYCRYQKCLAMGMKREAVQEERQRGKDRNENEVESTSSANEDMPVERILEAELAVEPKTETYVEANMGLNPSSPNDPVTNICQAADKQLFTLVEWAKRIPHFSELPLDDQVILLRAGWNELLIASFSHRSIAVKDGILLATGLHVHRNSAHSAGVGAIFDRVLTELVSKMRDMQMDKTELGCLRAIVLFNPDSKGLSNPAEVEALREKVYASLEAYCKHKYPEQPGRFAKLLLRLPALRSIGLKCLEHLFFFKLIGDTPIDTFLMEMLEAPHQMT
T2 sequence (P55055 whole entry): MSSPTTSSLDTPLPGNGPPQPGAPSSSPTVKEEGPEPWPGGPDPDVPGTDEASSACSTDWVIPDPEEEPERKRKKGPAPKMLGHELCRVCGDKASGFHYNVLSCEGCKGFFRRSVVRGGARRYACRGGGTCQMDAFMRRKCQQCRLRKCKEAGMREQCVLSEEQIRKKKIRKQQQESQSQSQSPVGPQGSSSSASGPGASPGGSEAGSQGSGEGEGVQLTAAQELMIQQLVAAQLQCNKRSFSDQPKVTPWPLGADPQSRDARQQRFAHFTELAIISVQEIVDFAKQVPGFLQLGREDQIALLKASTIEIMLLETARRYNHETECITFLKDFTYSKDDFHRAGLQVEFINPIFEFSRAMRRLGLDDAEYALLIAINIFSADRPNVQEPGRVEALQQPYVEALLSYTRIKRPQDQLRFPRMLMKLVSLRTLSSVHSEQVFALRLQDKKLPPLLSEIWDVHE
The description is as above. The format is binding. The conditions noted are these: average Ki with respect to LXR β, read-out: Ki(b). On the procedure:
as §1, §2
3. LXRβ lysate: Baculovirus expressed LXRβ/RXR heterodimer with RXR having a 6-HIS tag produced as a crude lysate
as §3, §4, §5, §6, §7, §8
LXRβ lysate (prepared as above) was diluted with protein lysate dilution buffer. 1400 μL of diluted LXRβ lysate was prepared per 384-well plate, ([…]) and 1120 μL of diluted LXRβ lysate was prepared for each additional 384-well plate.
as §9

This is an account of results in patent US7265131B2, “Isoquinolinone derivatives and their use as therapeutic agents” (Exelixis, Inc., priority 2002, dated 2007).

T1 sequence (Q13133 whole entry): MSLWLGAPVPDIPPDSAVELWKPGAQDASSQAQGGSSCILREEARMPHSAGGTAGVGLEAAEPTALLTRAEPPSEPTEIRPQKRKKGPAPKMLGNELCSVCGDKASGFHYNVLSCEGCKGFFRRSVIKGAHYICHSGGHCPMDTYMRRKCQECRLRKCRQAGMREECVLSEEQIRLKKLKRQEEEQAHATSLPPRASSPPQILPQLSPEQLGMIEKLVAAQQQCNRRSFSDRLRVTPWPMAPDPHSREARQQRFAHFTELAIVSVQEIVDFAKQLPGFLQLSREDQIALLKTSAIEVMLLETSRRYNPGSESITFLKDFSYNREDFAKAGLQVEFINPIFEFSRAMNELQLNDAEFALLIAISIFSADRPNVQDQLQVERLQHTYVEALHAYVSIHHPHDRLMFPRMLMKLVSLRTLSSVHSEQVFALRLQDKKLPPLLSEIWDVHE
T1 sequence (P19793 whole entry, further chain): as the sequence (P19793 whole entry) above

On to `Cc1cccc(-c2cc3ccccc3c(=O)n2Cc2ccccc2)c1` [2-benzyl-3-m-tolyl-2H-isoquinolin-1-one], for which the Ki at LXRα and on LXRβ was over 500 nM throughout.
Consider `CS(=O)(=O)c1ccc(-c2ccc(-c3cc4cccc(Cl)c4c(=O)n3Cc3ccc(F)cc3F)s2)cc1` [8-chloro-2-(2,4-difluorobenzyl)-3-[5-(4-methanesulfonylphenyl)thiophen-2-yl]-2H-isoquinolin-1-one], for which the Ki at LXRα and at LXRβ was 10 to 150 nM in each case.
For the compound `O=c1c2c(Cl)cccc2cc(-c2ccc(Oc3ccccc3)cc2)n1Cc1cccs1` [8-chloro-3-(4-phenoxyphenyl)-2-thiophen-2-ylmethyl-2H-isoquinolin-1-one], the Ki at LXRα and on LXRβ was 10 to 150 nM in each case.
`Cc1ccc(Cn2c(-c3ccsc3)cc3ccccc3c2=O)c(C)c1` [2-(2,4-dimethylbenzyl)-3-thiophen-3-yl-2H-isoquinolin-1-one]: the inhibitory constant (Ki) (as a rule, a measure of affinity in units of concentration, obtained from inhibition or displacement) at LXRα is over 500 nM; on LXRβ it was 150 to 500 nM.
The corresponding values for `O=c1c2c(Cl)cccc2cc(-c2cc(-c3cc(C(F)(F)F)cc(C(F)(F)F)c3)co2)n1Cc1ccc(F)cc1F` [3-[4-(3,5-bis-trifluoromethylphenyl)furan-2-yl]-8-chloro-2-(2,4-difluorobenzyl)-2H-isoquinolin-1-one] are 150 to 500 nM and 10 to 150 nM.
The corresponding values for `Nc1ccc(-c2coc(-c3cc4cccc(Cl)c4c(=O)n3Cc3ccc(F)cc3F)c2)cc1C(F)(F)F` [3-[4-(4-amino-3-trifluoromethylphenyl)furan-2-yl]-8-chloro-2-(2,4-difluorobenzyl)-2H-isoquinolin-1-one] are 10 to 150 nM and 10 to 150 nM.
With `O=c1c2c(Cl)cccc2cc(-c2ccc(Oc3ccccc3)cc2)n1Cc1ccc(F)cc1F` [8-chloro-2-(2,4-difluorobenzyl)-3-(4-phenoxyphenyl)-2H-isoquinolin-1-one], the Ki on LXRα and on LXRβ was 10 to 150 nM in each case.
With `O=c1c2c(Cl)cccc2cc(-c2ccc(Oc3ccccc3)cc2)n1CC1CCCCC1` [8-chloro-2-cyclohexylmethyl-3-(4-phenoxyphenyl)-2H-isoquinolin-1-one], the Ki on LXRα and on LXRβ was 10 to 150 nM throughout.
With `O=c1c2c(Cl)cccc2cc(-c2ccc(Oc3cnccn3)cc2)n1Cc1ccc(F)cc1F` [8-chloro-2-(2,4-difluorobenzyl)-3-[4-(pyrazin-2-yloxy)phenyl]-2H-isoquinolin-1-one], the Ki at LXRα and on LXRβ was 10 to 150 nM throughout.
On to `Cc1cccc(-c2cc3ccccc3c(=O)n2Cc2ccc(C)cc2C)c1` [2-(2,4-dimethylbenzyl)-3-m-tolyl-2H-isoquinolin-1-one], for which the Ki was in the range of 150 to 500 nM on LXRα and 10 to 150 nM at LXRβ.
For `Cc1ccc(Cn2c(-c3ccc(Oc4ccccc4)cc3)cc3cccc(C)c3c2=O)cc1` [8-methyl-2-(4-methylbenzyl)-3-(4-phenoxyphenyl)-2H-isoquinolin-1-one] the same measures were 10 to 150 nM and 10 to 150 nM.
For `Cc1ccc(Cn2c(-c3ccc(Oc4ccccc4)cc3)cc3ccccc3c2=O)c(C)c1` [2-(2,4-dimethylbenzyl)-3-(4-phenoxyphenyl)-2H-isoquinolin-1-one] the same measures were 10 to 150 nM and 10 to 150 nM.
The corresponding values for `CCOc1ccc(-c2csc(-c3cc4cccc(Cl)c4c(=O)n3Cc3ccc(F)cc3F)c2)cc1Cl` [8-chloro-3-[4-(3-chloro-4-ethoxyphenyl)thiophen-2-yl]-2-(2,4-difluorobenzyl)-2H-isoquinolin-1-one] are over 500 nM and 150 to 500 nM.
For `Cc1ccc(Cn2c(C#CC(C)(C)O)cc3ccccc3c2=O)c(C)c1` [2-(2,4-dimethylbenzyl)-3-(3-hydroxy-3-methylbut-1-ynyl)-2H-isoquinolin-1-one], the Ki at LXRα and on LXRβ was over 500 nM in each case.
